In patent US10670605B2, “Cysteine reactive probes and uses thereof” (The Scripps Research Institute, priority 2015, dated 2020):
Values belong to the molecule of their own block, whether it stands above or below them.

Key:
[1] = molecular target: T1, CYR61 C134 (O00622) (Homo sapiens, UniProt O00622); test: Competitive isoTOP-ABPP, cell lysates; format: binding; details: for isoTOP-ABPP ratio (reactivity profile), O00622_C134: 500 μm in-vitro ramos_231
T1 sequence (O00622 25-381): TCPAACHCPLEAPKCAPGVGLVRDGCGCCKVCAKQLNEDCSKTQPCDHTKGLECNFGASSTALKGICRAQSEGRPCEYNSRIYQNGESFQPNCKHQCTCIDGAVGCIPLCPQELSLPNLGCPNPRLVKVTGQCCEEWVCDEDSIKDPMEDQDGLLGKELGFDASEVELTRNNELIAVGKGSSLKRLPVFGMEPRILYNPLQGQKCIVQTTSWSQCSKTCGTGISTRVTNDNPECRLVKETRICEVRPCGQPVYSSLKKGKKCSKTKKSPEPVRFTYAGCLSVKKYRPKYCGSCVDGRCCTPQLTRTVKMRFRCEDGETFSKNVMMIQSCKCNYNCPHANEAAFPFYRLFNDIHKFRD

[2] = molecular target: T2, NR3C1 C622 (P04150) (Homo sapiens, UniProt P04150); test: Competitive isoTOP-ABPP, cell lysates; format: binding
T2 sequence (P04150 1-777): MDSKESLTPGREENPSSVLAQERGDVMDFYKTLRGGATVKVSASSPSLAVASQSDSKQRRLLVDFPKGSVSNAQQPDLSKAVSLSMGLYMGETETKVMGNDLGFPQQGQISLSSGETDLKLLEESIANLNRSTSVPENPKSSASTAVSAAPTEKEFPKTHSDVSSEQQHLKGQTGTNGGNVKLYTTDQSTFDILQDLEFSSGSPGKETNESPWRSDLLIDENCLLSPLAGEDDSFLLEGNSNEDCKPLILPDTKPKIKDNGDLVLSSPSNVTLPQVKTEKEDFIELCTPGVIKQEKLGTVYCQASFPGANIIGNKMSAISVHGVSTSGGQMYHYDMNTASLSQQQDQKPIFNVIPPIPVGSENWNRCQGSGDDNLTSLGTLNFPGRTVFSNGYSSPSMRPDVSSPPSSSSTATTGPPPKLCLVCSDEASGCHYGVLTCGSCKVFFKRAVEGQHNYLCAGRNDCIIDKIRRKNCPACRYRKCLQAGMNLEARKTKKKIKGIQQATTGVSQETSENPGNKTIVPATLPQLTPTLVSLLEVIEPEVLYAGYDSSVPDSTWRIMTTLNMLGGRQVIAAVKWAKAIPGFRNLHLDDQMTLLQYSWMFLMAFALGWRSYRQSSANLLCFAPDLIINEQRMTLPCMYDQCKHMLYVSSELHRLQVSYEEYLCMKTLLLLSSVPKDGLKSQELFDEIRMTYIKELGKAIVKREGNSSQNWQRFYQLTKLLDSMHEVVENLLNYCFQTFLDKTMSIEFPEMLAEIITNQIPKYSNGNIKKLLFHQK

[3] = molecular target: PES1 C272 (O00541) (Homo sapiens, UniProt O00541); test: Competitive isoTOP-ABPP, cell lysates; format: binding; details: 500 μM, invitro
Sequence of PES1 C272 (O00541) (O00541 whole entry, looked up, the tested form may be a part): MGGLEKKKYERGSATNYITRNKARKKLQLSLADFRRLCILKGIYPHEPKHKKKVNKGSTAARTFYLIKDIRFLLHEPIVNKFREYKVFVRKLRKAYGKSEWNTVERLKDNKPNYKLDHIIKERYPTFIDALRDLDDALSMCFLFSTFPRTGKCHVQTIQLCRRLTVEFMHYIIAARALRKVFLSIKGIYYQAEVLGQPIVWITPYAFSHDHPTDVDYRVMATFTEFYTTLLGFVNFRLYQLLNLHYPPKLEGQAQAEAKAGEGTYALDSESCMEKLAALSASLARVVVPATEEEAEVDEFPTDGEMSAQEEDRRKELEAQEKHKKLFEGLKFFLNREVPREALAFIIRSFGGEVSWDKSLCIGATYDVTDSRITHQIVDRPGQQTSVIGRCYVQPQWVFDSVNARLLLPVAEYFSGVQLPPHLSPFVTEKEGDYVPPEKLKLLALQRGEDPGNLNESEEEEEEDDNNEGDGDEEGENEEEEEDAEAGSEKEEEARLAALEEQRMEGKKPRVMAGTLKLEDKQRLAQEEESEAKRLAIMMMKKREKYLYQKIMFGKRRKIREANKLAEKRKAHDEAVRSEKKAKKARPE

[4] = molecular target: T3, cysteines in MDA-MB-231 and Ramos cells (Homo sapiens, UniProt Q8IZ73); test: Competitive isoTOP-ABPP in situ (fragment-treated cells); format: cell-based; details: 200 μM, insitu
T3 sequence (Q8IZ73 1-545): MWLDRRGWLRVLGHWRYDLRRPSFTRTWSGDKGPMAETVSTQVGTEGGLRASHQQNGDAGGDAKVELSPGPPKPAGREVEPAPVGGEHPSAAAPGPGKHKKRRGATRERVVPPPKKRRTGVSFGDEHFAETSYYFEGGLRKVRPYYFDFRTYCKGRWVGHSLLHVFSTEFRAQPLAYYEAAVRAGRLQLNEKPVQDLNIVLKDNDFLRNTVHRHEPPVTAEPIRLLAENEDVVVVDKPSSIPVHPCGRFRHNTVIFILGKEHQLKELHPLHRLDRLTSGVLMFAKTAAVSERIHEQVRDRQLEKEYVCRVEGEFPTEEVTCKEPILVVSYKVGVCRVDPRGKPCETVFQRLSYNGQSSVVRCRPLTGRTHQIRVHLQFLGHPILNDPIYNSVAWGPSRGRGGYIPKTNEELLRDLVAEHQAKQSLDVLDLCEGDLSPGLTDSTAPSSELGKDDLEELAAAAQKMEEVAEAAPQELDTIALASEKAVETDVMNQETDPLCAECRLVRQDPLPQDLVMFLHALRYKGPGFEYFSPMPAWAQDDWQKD

[5] = molecular target: O00541_C272 (Homo sapiens, UniProt O00541); test: Competitive isoTOP-ABPP, cell lysates; format: binding; details: 500 μm
Sequence of O00541_C272 (O00541 whole entry, looked up): as the sequence (O00541 whole entry, looked up, the tested form may be a part) above

isoTOP-ABPP ratio, O00541_C272 ([3]; ramos): 12.3
Compound: C=CC(=O)N(c1ccccc1)c1ccc(Br)cc1 [compound 5]

isoTOP-ABPP ratio, O00622_C134 ([1]; 500 μM, invitro, 231): 20.0 | isoTOP-ABPP ratio, O00541_C272 ([3]; ramos): 2.2
Compound: O=C(CCl)N1CCN(S(=O)(=O)c2ccccc2F)CC1 [compound 10]

isoTOP-ABPP ratio, O00541_C272 [3]; 231: 1.7
Compound: O=C(CCl)NCCc1c[nH]c2ccccc12 [compound 13]

isoTOP-ABPP ratio (reactivity profile), O00622_C134 [1]: 1.0
Compound: CC(Cl)C(=O)Nc1cc(C(F)(F)F)cc(C(F)(F)F)c1 (centres unmarked) [compound 25]

isoTOP-ABPP ratio (reactivity profile), O00622_C134 [1]: 1.5
Compound: CC(C)CCOCCNC(=O)CCl [compound 27]

isoTOP-ABPP reactivity ratio, O00541_C272 ([5]; in-vitro_ramos): 1.0
Compound: C=CC(=O)N1CCC(c2noc3ccc(F)cc23)CC1 [compound 37]

Continued, molecule first:

Compound: O=C(CCl)Nc1cc(C(F)(F)F)cc(C(F)(F)F)c1 [compound 3]
R value (DMSO/fragment) ([1]; 500 μM, in vitro, MDA-MB-231): 20.0 | R value (DMSO/fragment) ([2]; 500 μM, in vitro, MDA-MB-231): 20.0

Compound: Cn1cc(S(=O)(=O)N2CCOCC2)cc1C(=O)NC(=O)CCl [compound 11]
isoTOP-ABPP ratio, P04150_C622 ([2]; 500 μM, invitro, 231): 1.7 | isoTOP-ABPP ratio, O00541_C272 ([3]; ramos): 4.2

Compound: O=C(CCl)N1CCC(C(O)(c2ccccc2)c2ccccc2)CC1 [compound 20]
isoTOP-ABPP ratio (reactivity profile), O00622_C134 [1]: 20.0

Compound: O=C(CCl)NC12CC3CC(CC(C3)C1)C2 [compound 21]
isoTOP-ABPP ratio, cysteine Q8IZ73_C246 [4]; 231: 1.8

Compound: C=CC(=O)N(Cc1cccnc1)c1cc(C(F)(F)F)cc(C(F)(F)F)c1 [compound 31]
isoTOP-ABPP ratio Q8IZ73_C246 [4]; 231: 0.4 | isoTOP-ABPP ratio Q8IZ73_C246 ([4]; ramos): 1.0 | isoTOP-ABPP reactivity ratio, P04150_C622 ([2]; 500 μm, in-vitro_ramos_231): 4.8

Compound: O=C(CCl)Nc1ccccc1C1CCCCCC1 [compound 35]
isoTOP-ABPP reactivity ratio, O00541_C272 ([5]; in-vitro_ramos): 1.2 | isoTOP-ABPP reactivity ratio, O00541_C272 ([5]; in-vitro_ramos_231): 0.8

Compound: C=CC(=O)Nc1cc(F)c(N2CCN(C(=O)OC(C)(C)C)CC2)c(F)c1 [compound 38]
isoTOP-ABPP ratio Q8IZ73_C246 [4]; 231: 1.7 | isoTOP-ABPP reactivity ratio, O00541_C272 ([5]; in-vitro_ramos_231): 1.0
